Laboratory results taken from ChEMBL document CHEMBL1201862, “PubChem BioAssay data set” (2004).
The source made the active and inactive calls.

Experiments:
[1] = biological target: Paired box protein Pax-8 (Homo sapiens, UniProt Q06710); experiment: inhibitors of PAX8-driven TPO luciferase reporter, dose response, RMG-I cells, cherry-pick (AID 687027); type: functional, cell-based;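 further: luciferase reporter driven by Pax8 target thyroperoxidase promoter measured by SteadyGlo luminescence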
[2] = NIH:OVCAR-3 ovarian cancer cell cytotoxicity, dose response, PAX8 inhibitor project, plate reader, dry powder samples (AID 743044); type: functional, cell-based
[3] = IGROV1 ovarian cancer cell cytotoxicity, dose response, PAX8 inhibitor project, plate reader, dry powder samples (AID 743043); type: functional, cell-based; settings: IGROV-1
[4] = non-specific cell cytotoxicity, dose response, cytotoxicity control for PAX8 inhibitor project, plate reader, dry powder samples (AID 743021); type: functional, cell-based
[5] = cytotoxicity in OVCAR8 ovarian cancer cells, dose response, PAX8 project, cell-based, plate reader, dry powder samples (AID 743197); type: functional; settings: OVCAR-8
[6] = biological target: SWI/SNF-related matrix-associated actin-dependent regulator of chromatin subfamily A member 2 (Homo sapiens, UniProt P51531); experiment: Luminescence-based cell-based high throughput dose response assay to identify activators of the function of SWI/SNF related, matrix associated, actin dependent regulator of chromatin, subfamily a, member 2 (SMARCA2, BRM).; type: functional
SWI/SNF-related matrix-associated actin-dependent regulator of chromatin subfamily A member 2, sequence (P51531 whole entry): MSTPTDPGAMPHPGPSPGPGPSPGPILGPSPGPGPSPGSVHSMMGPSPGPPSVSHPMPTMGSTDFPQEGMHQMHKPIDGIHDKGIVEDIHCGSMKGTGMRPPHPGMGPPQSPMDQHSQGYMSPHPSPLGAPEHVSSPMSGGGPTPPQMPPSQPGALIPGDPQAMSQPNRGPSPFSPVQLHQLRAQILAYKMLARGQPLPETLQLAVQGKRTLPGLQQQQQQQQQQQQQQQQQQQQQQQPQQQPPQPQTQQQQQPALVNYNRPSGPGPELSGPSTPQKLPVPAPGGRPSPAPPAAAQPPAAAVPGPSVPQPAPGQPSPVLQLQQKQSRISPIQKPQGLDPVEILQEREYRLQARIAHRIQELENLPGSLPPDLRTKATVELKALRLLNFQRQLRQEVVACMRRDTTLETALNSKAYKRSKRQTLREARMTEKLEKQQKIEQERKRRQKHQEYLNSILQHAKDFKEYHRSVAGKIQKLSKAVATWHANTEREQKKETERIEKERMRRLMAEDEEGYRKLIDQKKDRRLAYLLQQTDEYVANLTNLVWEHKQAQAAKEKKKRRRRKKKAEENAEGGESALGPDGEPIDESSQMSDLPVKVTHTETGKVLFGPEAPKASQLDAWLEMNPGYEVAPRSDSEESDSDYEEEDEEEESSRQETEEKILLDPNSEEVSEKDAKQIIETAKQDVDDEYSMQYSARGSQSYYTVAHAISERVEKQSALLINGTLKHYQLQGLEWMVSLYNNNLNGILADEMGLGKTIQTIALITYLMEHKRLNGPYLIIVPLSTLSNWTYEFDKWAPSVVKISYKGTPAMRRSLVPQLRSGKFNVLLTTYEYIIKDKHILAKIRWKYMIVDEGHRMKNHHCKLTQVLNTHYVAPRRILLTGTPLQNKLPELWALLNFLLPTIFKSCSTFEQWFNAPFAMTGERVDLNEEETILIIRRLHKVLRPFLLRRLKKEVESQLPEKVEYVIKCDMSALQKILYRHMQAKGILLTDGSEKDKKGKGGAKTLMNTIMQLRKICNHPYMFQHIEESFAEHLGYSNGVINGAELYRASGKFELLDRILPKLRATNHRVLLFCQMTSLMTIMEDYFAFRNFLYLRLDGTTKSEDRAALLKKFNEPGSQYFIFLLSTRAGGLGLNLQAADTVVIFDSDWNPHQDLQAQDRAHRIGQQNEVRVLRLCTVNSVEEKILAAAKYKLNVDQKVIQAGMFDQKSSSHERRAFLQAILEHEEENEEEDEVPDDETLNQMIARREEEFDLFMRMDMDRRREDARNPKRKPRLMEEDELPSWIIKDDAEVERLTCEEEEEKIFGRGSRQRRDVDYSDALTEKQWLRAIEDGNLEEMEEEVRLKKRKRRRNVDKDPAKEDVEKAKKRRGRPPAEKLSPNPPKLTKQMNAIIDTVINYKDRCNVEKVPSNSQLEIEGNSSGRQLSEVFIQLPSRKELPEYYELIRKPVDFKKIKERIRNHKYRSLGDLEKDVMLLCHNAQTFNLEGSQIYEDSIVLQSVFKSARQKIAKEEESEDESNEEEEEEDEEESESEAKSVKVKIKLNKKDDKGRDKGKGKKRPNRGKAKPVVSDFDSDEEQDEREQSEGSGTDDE

[7] = Counterscreen for activators of the function of SWI/SNF related, matrix associated, actin dependent regulator of chromatin, subfamily a, member 2 (SMARCA2, BRM): Luminescence-based cell-based high throughput dose response assay to identify non-selective compounds using the VP16 reporter assay.; type: functional
[8] = system: Streptococcus sp. 'group A'; experiment: growth inhibition of control SK(-) GAS strain, dose response, counter-screen for streptokinase expression inhibitor project, luminescence, kanamycin, BacTiterGlo, confirmation (AID 1900); type: functional, organism-based
[9] = biological target: T1, Streptokinase A (Streptococcus pyogenes serotype M1, UniProt P10520); experiment: S. pyogenes streptokinase expression inhibitors, potency, dose response, plasminogen activation absorbance, OD405 (AID 1914); type: functional, Streptococcus pyogenes M1 GAS;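 further: secreted streptokinase activity via plasminogen activation per viability signal from cell pellet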
T1 sequence (P10520 whole entry): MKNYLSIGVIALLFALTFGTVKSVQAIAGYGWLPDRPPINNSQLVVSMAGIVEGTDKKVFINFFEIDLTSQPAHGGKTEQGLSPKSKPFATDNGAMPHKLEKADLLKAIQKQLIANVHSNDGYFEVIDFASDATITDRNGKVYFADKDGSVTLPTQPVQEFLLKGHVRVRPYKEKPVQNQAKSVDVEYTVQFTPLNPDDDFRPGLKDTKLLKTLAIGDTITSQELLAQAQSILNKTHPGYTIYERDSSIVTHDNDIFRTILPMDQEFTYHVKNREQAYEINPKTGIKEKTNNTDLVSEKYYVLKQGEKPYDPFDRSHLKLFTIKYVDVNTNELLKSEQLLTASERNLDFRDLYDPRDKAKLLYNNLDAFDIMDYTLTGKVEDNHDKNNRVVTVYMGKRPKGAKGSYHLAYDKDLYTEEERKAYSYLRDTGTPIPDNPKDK

[10] = system: Streptococcus; experiment: Group A Streptococcus viability loss, dose response, counter-screen for streptokinase expression inhibitor project, luminescence, BacTiterGlo (AID 1915); type: functional, organism-based;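 further: potency for reduction of bacterial viability or growth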
[11] = biological target: T2, Caspase-3 (Homo sapiens, UniProt P42574); type: functional;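 further: Dose-response selectivity test against caspase-3 for candidate inhibitors of sentrin-specific proteases (SENPs)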
T2 sequence (P42574 whole entry): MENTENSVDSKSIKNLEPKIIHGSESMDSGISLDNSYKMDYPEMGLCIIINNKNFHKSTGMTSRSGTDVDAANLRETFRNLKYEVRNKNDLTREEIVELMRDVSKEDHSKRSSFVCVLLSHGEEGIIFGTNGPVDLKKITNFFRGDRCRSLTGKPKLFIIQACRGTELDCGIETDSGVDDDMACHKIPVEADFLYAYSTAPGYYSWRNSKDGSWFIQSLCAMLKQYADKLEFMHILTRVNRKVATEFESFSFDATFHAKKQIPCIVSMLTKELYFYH

[12] = biological target: T3, Sentrin-specific protease 7 (Homo sapiens, UniProt Q9BQF6); type: functional;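 further: Luminescence-based dose-response confirmation of ultra-high-throughput screening hits, measuring inhibition of SENP7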
T3 sequence (Q9BQF6 whole entry): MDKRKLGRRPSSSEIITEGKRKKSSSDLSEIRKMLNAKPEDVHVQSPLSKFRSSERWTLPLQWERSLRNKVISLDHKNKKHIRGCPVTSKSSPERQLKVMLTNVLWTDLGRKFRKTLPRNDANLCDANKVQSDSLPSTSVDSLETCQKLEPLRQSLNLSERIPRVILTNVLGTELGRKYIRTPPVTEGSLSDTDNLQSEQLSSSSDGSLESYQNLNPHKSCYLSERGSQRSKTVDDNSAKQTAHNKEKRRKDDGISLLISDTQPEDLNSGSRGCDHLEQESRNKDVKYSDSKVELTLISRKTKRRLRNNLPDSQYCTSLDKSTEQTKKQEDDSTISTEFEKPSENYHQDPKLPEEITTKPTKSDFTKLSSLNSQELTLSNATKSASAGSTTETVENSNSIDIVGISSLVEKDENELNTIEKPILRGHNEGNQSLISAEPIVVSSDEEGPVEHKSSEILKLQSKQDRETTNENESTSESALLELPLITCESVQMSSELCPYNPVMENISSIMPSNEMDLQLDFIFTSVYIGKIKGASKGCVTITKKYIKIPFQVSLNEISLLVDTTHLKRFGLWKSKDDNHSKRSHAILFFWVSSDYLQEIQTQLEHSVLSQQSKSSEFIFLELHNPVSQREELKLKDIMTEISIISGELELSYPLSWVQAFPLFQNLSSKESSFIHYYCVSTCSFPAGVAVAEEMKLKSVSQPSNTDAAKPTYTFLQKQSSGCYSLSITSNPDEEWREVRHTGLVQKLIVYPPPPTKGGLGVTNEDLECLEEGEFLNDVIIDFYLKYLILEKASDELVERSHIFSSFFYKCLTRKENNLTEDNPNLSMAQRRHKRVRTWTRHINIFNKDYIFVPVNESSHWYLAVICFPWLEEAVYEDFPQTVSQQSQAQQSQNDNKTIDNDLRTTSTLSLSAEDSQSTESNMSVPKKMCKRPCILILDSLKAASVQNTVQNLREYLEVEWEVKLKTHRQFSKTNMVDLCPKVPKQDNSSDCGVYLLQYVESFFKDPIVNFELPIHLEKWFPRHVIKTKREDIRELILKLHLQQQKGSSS

[13] = biological target: T4, Sentrin-specific protease 6 (Homo sapiens, UniProt Q9GZR1); type: functional;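 further: Luminescence-based dose-response confirmatory assay of SENP6 inhibition, following up an ultra-high-throughput screen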
T4 sequence (Q9GZR1 whole entry): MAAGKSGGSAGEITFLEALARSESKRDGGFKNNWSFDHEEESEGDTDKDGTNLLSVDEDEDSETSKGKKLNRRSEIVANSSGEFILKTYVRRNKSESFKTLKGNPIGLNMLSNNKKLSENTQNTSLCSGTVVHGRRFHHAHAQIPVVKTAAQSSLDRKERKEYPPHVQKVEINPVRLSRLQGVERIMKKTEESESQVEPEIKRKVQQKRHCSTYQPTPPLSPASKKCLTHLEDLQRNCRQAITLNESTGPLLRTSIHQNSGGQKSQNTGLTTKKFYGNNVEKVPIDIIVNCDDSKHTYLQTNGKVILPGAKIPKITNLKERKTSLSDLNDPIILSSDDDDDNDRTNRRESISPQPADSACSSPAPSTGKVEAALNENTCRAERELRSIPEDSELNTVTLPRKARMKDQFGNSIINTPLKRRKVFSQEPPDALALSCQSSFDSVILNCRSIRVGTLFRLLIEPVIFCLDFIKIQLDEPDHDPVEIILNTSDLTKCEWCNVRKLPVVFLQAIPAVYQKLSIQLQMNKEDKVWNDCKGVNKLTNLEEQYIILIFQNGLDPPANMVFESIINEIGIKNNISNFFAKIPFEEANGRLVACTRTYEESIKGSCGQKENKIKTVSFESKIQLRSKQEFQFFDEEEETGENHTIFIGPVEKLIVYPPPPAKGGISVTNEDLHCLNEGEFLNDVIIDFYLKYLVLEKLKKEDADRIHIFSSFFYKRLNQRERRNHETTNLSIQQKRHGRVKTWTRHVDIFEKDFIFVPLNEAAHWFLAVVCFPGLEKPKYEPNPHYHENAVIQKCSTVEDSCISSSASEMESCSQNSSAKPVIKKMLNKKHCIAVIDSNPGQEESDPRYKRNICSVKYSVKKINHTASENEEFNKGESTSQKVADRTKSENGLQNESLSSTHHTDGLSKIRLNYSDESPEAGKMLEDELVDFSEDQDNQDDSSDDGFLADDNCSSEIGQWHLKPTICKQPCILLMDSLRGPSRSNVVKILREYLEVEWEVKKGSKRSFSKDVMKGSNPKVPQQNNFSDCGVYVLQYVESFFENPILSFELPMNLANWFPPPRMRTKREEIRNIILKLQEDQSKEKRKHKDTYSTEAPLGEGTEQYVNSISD

[14] = biological target: T5, Sentrin-specific protease 8 (Homo sapiens, UniProt Q96LD8); type: functional;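 further: luminescence read-out of SENP8 inhibition, dose-response confirmation following an ultra-high-throughput screen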
T5 sequence (Q96LD8 whole entry): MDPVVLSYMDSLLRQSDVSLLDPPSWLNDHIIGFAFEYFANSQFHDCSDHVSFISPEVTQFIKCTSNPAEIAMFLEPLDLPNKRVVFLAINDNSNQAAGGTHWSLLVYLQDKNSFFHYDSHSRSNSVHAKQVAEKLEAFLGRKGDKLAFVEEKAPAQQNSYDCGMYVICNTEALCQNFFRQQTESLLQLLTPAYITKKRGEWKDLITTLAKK

[15] = system: P388/ADR; experiment: cells; type: functional; settings: Mus musculus
[16] = system: P388; experiment: cells; type: functional; settings: Mus musculus
[17] = system: SN12K1; experiment: cells; type: functional; settings: Homo sapiens

Paired box protein Pax-8, sequence (Q06710 whole entry): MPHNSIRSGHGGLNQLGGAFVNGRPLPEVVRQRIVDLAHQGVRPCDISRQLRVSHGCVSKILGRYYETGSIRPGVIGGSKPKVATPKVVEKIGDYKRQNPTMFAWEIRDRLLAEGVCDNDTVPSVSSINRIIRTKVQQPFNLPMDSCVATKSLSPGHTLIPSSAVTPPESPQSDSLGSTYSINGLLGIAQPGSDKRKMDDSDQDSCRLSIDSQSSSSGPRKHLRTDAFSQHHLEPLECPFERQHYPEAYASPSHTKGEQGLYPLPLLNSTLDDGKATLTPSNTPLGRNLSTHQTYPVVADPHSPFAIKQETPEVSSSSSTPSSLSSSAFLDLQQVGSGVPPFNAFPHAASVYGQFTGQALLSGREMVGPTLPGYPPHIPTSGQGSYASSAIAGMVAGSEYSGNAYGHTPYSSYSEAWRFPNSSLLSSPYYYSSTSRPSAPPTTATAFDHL

For `Cc1ccc(S(=O)(=O)Nc2ccc3c(c2)C(=O)N([C@@H](C)CO)C[C@@H](C)[C@H](CN(C)Cc2ccc(C(F)(F)F)cc2)OCCCC[C@@H](C)O3)cc1`, the AC50 [1] was 8.98 µM (active), the AC50 [2] was 17.9 µM (active) and the AC50 [3] was 36.9 µM (active). The AC50 [4] was 43 µM (active) and the AC50 [5] was > 70 µM (inactive).
For `Clc1ccc(CO/N=C2\CCCc3nonc32)cc1`, the EC50 [6] was > 91.2 µM (inactive) and the EC50 [7] was > 91.2 µM (inactive).
With `Cc1n[nH]c(SCC(=O)N2CCc3ccccc32)n1` the EC50 [6] was > 91 µM (inactive) and the EC50 [7] was > 91 µM (inactive).
In the case of `Cc1cccc(Nc2nc(-c3ccc(F)c(C)c3)cs2)n1`, the EC50 [8] is reported as 8.77 µM (active), the EC50 [9] is reported as > 50 µM (not active) and the EC50 [10] is reported as 26.7 µM (active). The IC50 [11] was 41.4 µM (active), the IC50 [12] was 5.75 µM (active) and the IC50 [13] was 24 µM (active). The IC50 [14] was 41.5 µM (active).
With `CC[C@@]1(O)CC(OC2CC(N3CCOCC3)C(O)C(C)O2)c2c(O)c3c(c(O)c2[C@H]1O)C(=O)c1cccc(O)c1C3=O` (some centres undefined) the GI50 [15] was 0.00975 nM (active) and the GI50 [16] was 3.66 nM (active).
For `CCCCS(=O)(=O)Nc1ccc(Nc2c3ccccc3nc3ccccc23)c(OC)c1`, the GI50 [15] was 255 nM (active), the GI50 [17] was 1.26 µM (inactive) and the GI50 [16] was < 10 nM (active).
With `Cc1cc(O)c2c(c1)C(=O)c1c(c(O)cc(O)c1-c1c(O)cc(O)c3c1C(=O)c1cc(C)cc(O)c1C3=O)C2=O` [SKYRIN] the GI50 [15] was 17900 nM (inactive), the GI50 [17] was 9.23 µM (inactive) and the GI50 [16] was 8950 nM (inactive).
